Assay results from US12384789B2, “Compounds for treating Huntington's disease” (PTC Therapeutics, Inc., priority 2017, dated 2025).

System: Endogenous Huntingtin Protein
Experiment: Endogenous Huntingtin Protein Assay (Meso Scale Discovery ELISA-based electrochemiluminescence)
Format: cell-based
Details: MSD electrochemiluminescence, Table 1
Protocol: Compounds of Formula (I) were tested using the Meso Scale Discovery (MSD) Assay provided in International Application No. PCT/US2016/066042, filed on Dec. 11, 2016 and claiming priority to United States Provisional Application U.S. 62/265,652 filed on Dec. 10, 2015, the entire contents of which are incorporated herein by reference.
The Endogenous Huntingtin Protein assay used in Example 1 was developed using the ELISA-based MSD electrochemiluminescence assay platform.
Endogenous Huntingtin Protein Assay
Meso Scale Discovery (MSD) 96-well or 384-well plates were coated overnight at 4° C. with MW1 (expanded polyglutamine) or MAB2166 monoclonal antibody (for capture) at a concentration of 1 μg/mL in PBS (30 μL per well). Plates were then washed three times with 300 μL wash buffer (0.05% Tween-20 in PBS) and blocked (100 μL blocking buffer; 5% BSA in PBS) for 4-5 hours at room temperature with rotational shaking and then washed three times with wash buffer.
Samples (25 μL) were transferred to the antibody-coated MSD plate and incubated overnight at 4° C. After removal of the lysates, the plate was washed three times with wash buffer, and 25 μL of #5656S (Cell signaling; rabbit monoclonal) secondary antibody (diluted to 0.25 μg/mL in 0.05% Tween-20 in blocking buffer) was added to each well and incubated with shaking for 1 Hour at room temperature. Following incubation with the secondary antibody, the wells were rinsed with wash buffer after which 25 μL of goat anti-rabbit SULFO TAG secondary detection antibody (required aspect of the MSD system) (diluted to 0.25 μg/mL in 0.05% Tween-20 in blocking buffer) was added to each well and incubated with shaking for 1 hour at room temperature. After rinsing three times with wash buffer, 150 μL of read buffer T with surfactant (MSD) were added to each empty well, and the plate was imaged on a SI 6000 imager (MSD) according to manufacturers' instructions provided for 96- or 384-well plates.

Compound	IC50
CCN1CCC(c2cc3c(F)cc(-c4cc(CO)c5nc(C)cn5n4)cc3nn2)CC1 [Compound 113, {6-[3-(1-ethylpiperidin-4-yl)-5-fluorocinnolin-7-yl]-2-methylimidazo[1,2-b]pyridazin-8-yl}methanol]	≤ 100 nM
Cc1cn2nc(-c3cc(F)c4cc(C5CCCN(CCF)CC5)nnc4c3)cc(C)c2n1 (stereo not shown) [Compound 199, 7-(2,8-dimethylimidazo[1,2-b]pyridazin-6-yl)-5-fluoro-3-[1-(2-fluoroethyl)azepan-4-yl]cinnoline]	≤ 100 nM
Cc1cn2nc(-c3cc(F)c4nc(C5CCN(C)CC5)ccc4c3)cc(C)c2n1 [Compound 47, 6-(2,8-dimethylimidazo[1,2-b]pyridazin-6-yl)-8-fluoro-2-(1-methylpiperidin-4-yl)quinoline]	≤ 100 nM
Cc1cn2nc(-c3cc(F)c4cc(C5CCN(CCF)CC5)nnc4c3)cc(CO)c2n1 [Compound 182, (6-{5-fluoro-3-[1-(2-fluoroethyl)piperidin-4-yl]cinnolin-7-yl}-2-methylimidazo[1,2-b]pyridazin-8-yl)methanol]	≤ 100 nM
CC[C@H]1CC(c2cc3c(F)cc(-c4cc(C)c5nc(C)cn5n4)cc3nn2)C[C@H](CC)N1 (stereo partly drawn) [Compound 130, 3-[(2S,6S)-2,6-diethylpiperidin-4-yl]-7-(2,8-dimethylimidazo[1,2-b]pyridazin-6-yl)-5-fluorocinnoline]	≤ 100 nM
Cc1cc2cc(-c3cc(F)c4nc(C5CCNCC5)nnc4c3)cc(C)n2n1 [Compound 65, 7-(2,7-dimethylpyrazolo[1,5-a]pyridin-5-yl)-5-fluoro-3-(piperidin-4-yl)-1,2,4-benzotriazine]	100 to 500 nM
Cc1cc(-c2cc3c(F)cc([C@@]4(O)CCNC[C@@H]4O)cc3nn2)cc2cn(C)nc12 [Compound 203, (3S,4S)-4-[3-(2,7-dimethyl-2H-indazol-5-yl)-5-fluorocinnolin-7-yl]piperidine-3,4-diol]	500 to 1000 nM
Cc1cc(-c2cc3c(F)cc(C4CCNCC4)cc3nn2)cc2cn(C)nc12 [Compound 177, 3-(2,7-dimethyl-2H-indazol-5-yl)-5-fluoro-7-(piperidin-4-yl)cinnoline]	≤ 100 nM
Cc1cc(-c2cc(F)c3cc(C4C[C@@H](C)N(C)[C@@H](C)C4)nnc3c2)nc2cn(C)nc12 (stereo partly drawn) [Compound 227, 7-(2,7-dimethyl-2H-pyrazolo[4,3-b]pyridin-5-yl)-5-fluoro-3-((2S,4R,6R)-1,2,6-trimethylpiperidin-4-yl)cinnoline]	≤ 100 nM
Cc1cc(-c2cc(F)c3nc(C4CCNCC4)ccc3c2)cc2cn(C)nc12 [Compound 20, 6-(2,7-dimethyl-2H-indazol-5-yl)-8-fluoro-2-(piperidin-4-yl)quinoline]	≤ 100 nM
Cc1cn2nc(-c3cc(F)c4cc(C5CCN(CCCN(C)C)CC5)nnc4c3)cc(C)c2n1 [Compound 158, 3-{4-[7-(2,8-dimethylimidazo[1,2-b]pyridazin-6-yl)-5-fluorocinnolin-3-yl]piperidin-1-yl}-N,N-dimethylpropan-1-amine]	≤ 100 nM
CN1CCC(c2ccc3cc(-c4ccc5nn(C)cc5c4)ccc3n2)CC1 [Compound 6, 6-(2-methyl-2H-indazo1-5-yl)-2-(1-methylpiperidin-4-yl)quinoline]	500 to 1000 nM
Cc1nc2c(C)cc(-c3cc(F)c4cc(C5CCNCC5)nnc4c3)cc2s1 [Compound 118, 7-(2,4-dimethyl-1,3-benzothiazol-6-yl)-5-fluoro-3-(piperidin-4-yl)cinnoline]	100 to 500 nM
Cc1cn2cc(-c3cc(F)c4nc(C5CCNCC5)ccc4c3)cc(F)c2n1 [Compound 50, 8-fluoro-6-(8-fluoro-2-methylimidazo[1,2-a]pyridin-6-yl)-2-(piperidin-4-yl)quinoline]	≤ 100 nM
CCN1CCC(c2cc3c(F)cc(-c4cc(Oc5ccccc5)c5nc(C)cn5n4)cc3nn2)CC1 [Compound 200, 3-(1-ethylpiperidin-4-yl)-5-fluoro-7-(2-methyl-8-phenoxyimidazo[1,2-b]pyridazin-6-yl)cinnoline]	≤ 100 nM
CCN1[C@H](C)CC(c2cc3c(F)cc(-c4cc(C)c5nc(C)cn5n4)cc3nn2)C[C@@H]1C (stereo partly drawn) [Compound 168, 7-(2,8-dimethylimidazo[1,2-b]pyridazin-6-yl)-3-[(2R,6S)-1-ethyl-2,6-dimethylpiperidin-4-yl]-5-fluorocinnoline]	100 to 500 nM
CCN1CCC(c2cc3c(F)cc(-c4cc(C)c5nc(C)oc5n4)cc3nn2)CC1 [Compound 152, 7-(2,7-dimethyl[1,3]oxazolo[5,4-b]pyridin-5-yl)-3-(1-ethylpiperidin-4-yl)-5-fluorocinnoline]	≤ 100 nM

Compound	IC50
Cc1cc(-c2ccc3nc(C4CCNCC4)cnc3c2)cc2cn(C)nc12 [Compound 31, 6-(2,7-dimethyl-2H-indazol-5-yl)-2-(piperidin-4-yl)quinoxaline]	100 to 500 nM
CCN1CCC(c2cc(F)c3nc(-c4cc(F)c5nn(C)cc5c4)ccc3c2)CC1 [Compound 193, 6-(1-ethylpiperidin-4-yl)-8-fluoro-2-(7-fluoro-2-methyl-2H-indazol-5-yl)quinoline]	≤ 100 nM
Cc1nc2ccc(-c3cc(F)c4cc(C5CCNCC5)nnc4c3)cn2n1 [Compound 94, 5-fluoro-7-(2-methyl[1,2,4]triazolo[1,5-a]pyridin-6-yl)-3-(piperidin-4-yl)cinnoline]	100 to 500 nM
CCN1CCC(c2cc3c(F)cc(-c4cc(C)c5nn(C)cc5n4)cc3nn2)CC1 [Compound 164, 7-(2,7-dimethyl-2H-pyrazolo[4,3-b]pyridin-5-yl)-3-(1-ethylpiperidin-4-yl)-5-fluorocinnoline]	≤ 100 nM
COc1cc(-c2cc(F)c3cc(C4CCNCC4)nnc3c2)nn2cc(C)nc12 [Compound 106, 5-fluoro-7-(8-methoxy-2-methylimidazo[1,2-b]pyridazin-6-yl)-3-(piperidin-4-yl)cinnoline]	≤ 100 nM
Cc1cn2cc(-c3nnc4cc(C5CCNCC5)cc(F)c4n3)cc(C)c2n1 [Compound 40, 3-(2,8-dimethylimidazo[1,2-a]pyridin-6-yl)-5-fluoro-7-(piperidin-4-yl)-1,2,4-benzotriazine]	100 to 500 nM
CCN1CCC(c2cc3c(F)cc(-c4cc(C)c5nc(C)sc5c4)cc3nn2)CC1 [Compound 120, 7-(2,4-dimethyl-1,3-benzothiazol-6-yl)-3-(1-ethylpiperidin-4-yl)-5-fluorocinnoline]	1000 to 3000 nM
Cc1cn2cc(-c3cc4c(F)cc(C5=CCNCC5)cc4nn3)cc(F)c2n1 [Compound 117, 5-fluoro-3-(8-fluoro-2-methylimidazo[1,2-a]pyridin-6-yl)-7-(1,2,3,6-tetrahydropyridin-4-yl)cinnoline]	≤ 100 nM
Cc1cc2oc(-c3cc(F)c4cc(C5CCN(CCO)CC5)nnc4c3)nc2c(C)n1 [Compound 213, 2-{4-[7-(4,6-dimethyl[1,3]oxazolo[4,5-c]pyridin-2-yl)-5-fluorocinnolin-3-yl]piperidin-1-yl}ethan-1-ol]	100 to 500 nM
Cc1cn2cc(-c3cc4c(F)cc(C5=CCNCC5)cc4nn3)cc(C)c2n1 [Compound 156, 3-(2,8-dimethylimidazo[1,2-a]pyridin-6-yl)-5-fluoro-7-(1,2,3,6-tetrahydropyridin-4-yl)cinnoline]	≤ 100 nM
Cn1cc2cc(-c3ccc4cc(C5=CCNCC5)cc(F)c4n3)cc(F)c2n1 [Compound 166, 8-fluoro-2-(7-fluoro-2-methyl-2H-indazol-5-yl)-6-(1,2,3,6-tetrahydropyridin-4-yl)quinoline]	≤ 100 nM
Cc1cn2cc(-c3nnc4cc(C5CCNCC5)ccc4n3)cc(F)c2n1 [Compound 43, 3-(8-fluoro-2-methylimidazo[1,2-a]pyridin-6-yl)-7-(piperidin-4-yl)-1,2,4-benzotriazine]	≤ 100 nM
CCN1CCC(c2cc3c(F)cc(-c4ccc5nc(C)cn5n4)cc3nn2)CC1 [Compound 100, 3-(1-ethylpiperidin-4-yl)-5-fluoro-7-(2-methylimidazo[1,2-b]pyridazin-6-yl)cinnoline]	≤ 100 nM
Cc1cn2cc(-c3cc(F)c4cc(C5CCNCC5)nnc4c3)cc(C)c2n1 [Compound 103, 7-(2,8-dimethylimidazo[1,2-a]pyridin-6-yl)-5-fluoro-3-(piperidin-4-yl)cinnoline]	≤ 100 nM
Cc1cn2nc(-c3cc(F)c4cc(N5CCC6(CNC6)C5)nnc4c3)cc(C)c2n1 [Compound 220, 3-(2,6-diazaspiro[3.4]octan-6-yl)-7-(2,8-dimethylimidazo[1,2-b]pyridazin-6-yl)-5-fluorocinnoline]	100 to 500 nM
Cc1cn2cc(-c3cc(F)c4cc(C5CCNCC5)nnc4c3)ccc2n1 [Compound 210, 5-fluoro-7-(2-methylimidazo[1,2-a]pyridin-6-yl)-3-(piperidin-4-yl)cinnoline]	≤ 100 nM
Cc1cn2nc(-c3cc(F)c4cc(N5CCNCC5)nnc4c3)cc(C)c2n1 [Compound 80, 7-(2,8-dimethylimidazo[1,2-b]pyridazin-6-yl)-5-fluoro-3-(piperazin-1-yl)cinnoline]	≤ 100 nM
